Laboratory results as given in PMC4220016, “The binding characteristics and orientation of a novel radioligand with distinct properties at 5-HT3A and 5-HT3AB receptors” (Neuropharmacology, 2014).
Where two headings read alike, the source gives them in different places.

Assays:
[1] = molecular target: T1, 5-HT3A receptors (Homo sapiens, UniProt P46098); experiment: Competition binding with [^3H]VUF10166 at 5-HT3A receptors
T1 sequence (P46098 24-478): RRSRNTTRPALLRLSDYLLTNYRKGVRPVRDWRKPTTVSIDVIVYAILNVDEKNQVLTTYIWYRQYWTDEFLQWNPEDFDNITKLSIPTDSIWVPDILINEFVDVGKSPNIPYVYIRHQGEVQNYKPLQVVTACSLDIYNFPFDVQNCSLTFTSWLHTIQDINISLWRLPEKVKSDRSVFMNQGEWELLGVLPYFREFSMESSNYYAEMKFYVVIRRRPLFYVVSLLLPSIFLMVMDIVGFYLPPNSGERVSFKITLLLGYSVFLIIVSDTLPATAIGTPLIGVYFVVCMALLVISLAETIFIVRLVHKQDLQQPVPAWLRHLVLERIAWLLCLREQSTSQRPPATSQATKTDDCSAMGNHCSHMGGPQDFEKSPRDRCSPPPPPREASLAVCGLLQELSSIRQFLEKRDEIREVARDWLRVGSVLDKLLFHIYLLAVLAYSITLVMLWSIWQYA

[2] = molecular target: T2, 5-HT3AB receptors (Homo sapiens, UniProt O95264+P46098); experiment: Competition binding with [^3H]VUF10166 at 5-HT3AB receptors
T2 sequence (P46098 24-478): T1 sequence (P46098 24-478)
T2 sequence (O95264 22-441): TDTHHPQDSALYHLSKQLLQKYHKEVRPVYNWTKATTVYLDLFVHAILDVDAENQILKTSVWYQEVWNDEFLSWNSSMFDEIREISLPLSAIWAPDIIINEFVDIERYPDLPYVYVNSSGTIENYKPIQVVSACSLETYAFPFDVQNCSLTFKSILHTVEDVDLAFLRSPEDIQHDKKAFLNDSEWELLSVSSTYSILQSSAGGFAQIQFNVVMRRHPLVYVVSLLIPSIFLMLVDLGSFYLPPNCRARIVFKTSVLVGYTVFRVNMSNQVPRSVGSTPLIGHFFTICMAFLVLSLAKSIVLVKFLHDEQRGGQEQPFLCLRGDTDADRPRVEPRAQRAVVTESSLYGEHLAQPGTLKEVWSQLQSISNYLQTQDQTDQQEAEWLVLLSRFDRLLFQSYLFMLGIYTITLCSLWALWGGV

[3] = molecular target: T1, 5-HT3A receptors
[4] = molecular target: T1, 5-HT3A receptors; experiment: biochemical
[5] = molecular target: T2, 5-HT3AB receptors; experiment: biochemical

Compound | inhibition of specific [^3H]VUF10166 binding (in words) ([1]; 5-HT3A) | inhibition of specific [^3H]VUF10166 binding (in words) ([2]; 5-HT3AB) | inhibition of specific [^3H]VUF10166 binding (in words) [1] | inhibition of specific [^3H]VUF10166 binding (in words) [2] | also measured
CC(=O)OCC[N+](C)(C)C [ACh] | not | not | – | – | –
CN1CCc2cc3c(cc2[C@H]1[C@@H]1OC(=O)c2c1ccc1c2OCO1)OCO3 [Bicuculline] | – | – | not | not | –
CC(C)(C)[C@]1(O)CC2OC(=O)CC23C(=O)OC2OC(=O)[C@H](O)C231 (stereo partly shown) [Bilobalide] | – | – | not and unaffected | not | –
COc1ccc(-c2ccc(=N)n(CCCC(=O)O)n2)cc1 [Gabazine] | not | not | – | – | –
CC1C(=O)O[C@H]2[C@H](O)[C@@]34[C@H]5C[C@@H](C(C)(C)C)[C@@]36C(O)C(=O)O[C@H]6O[C@@]4(C(=O)O5)[C@@]12O (stereo partly shown) [Ginkgolide] | – | – | not and unaffected | not | –
NCC(=O)O [Glycine] | not | not | – | – | –
CN1[C@@H]2CC[C@H]1C[C@@H](OC(=O)c1cc(Cl)cc(Cl)c1)C2 [MDL72222] | – | – | inhibited | inhibited | –
CN1CCC[C@H]1c1cccnc1 [Nicotine] | – | – | – | – | competition with [^3H]granisetron (in words) [3]: competed; IC50 [4]: 0.977 µM; IC50 [5]: 0.275 µM; IC50 [1]: 0.155 µM; IC50 [2]: 0.174 µM
c1ccc2nc(N3CCNCC3)ccc2c1 [Quipazine] | inhibited | inhibited | – | – | –
O=C1C[C@@H]2OCC=C3CN4CC[C@]56c7ccccc7N1[C@H]5[C@H]2[C@H]3C[C@H]46 [Strychnine] | – | – | – | – | competition with [^3H]granisetron (in words) [3]: competed; IC50 [4]: 50.1 µM; IC50 [5]: 14.1 µM; IC50 [1]: 1.48 µM; IC50 [2]: 0.55 µM
COc1cc2c3cc1Oc1cc(ccc1O)C[C@@H]1c4c(cc(OC)c(O)c4Oc4ccc(cc4)C[C@@H]3N(C)CC2)CC[N+]1(C)C [d-Tubocurarine] | – | – | inhibited | inhibited | IC50 [4]: 24.5 µM; IC50 [5]: 51.3 µM; IC50 [1]: 3.89 µM; IC50 [2]: 3.63 µM
Picrotoxin | – | – | not and unaffected | not | –
